Patent US11660319B2, “Compositions comprising bacterial strains” (priority 2017, dated 2023)

Assays:
[1] = test system: co-culture of human glioblastoma astrocytoma cells and neuroblastoma cells; assay: α-synuclein-induced IL-6 secretion in co-culture; assay type: cell-based; conditions: 25 μg/ml α-synuclein (Wt, A53T, E46K), 10% bacteria supernatant, 48 hrs
Procedure: SHSY5Y cells were plated on 12 well plates at a density of 50,000 cells/well. The cells were grown in 50% MEM and 50% Nutrient Mixture F-12 Ham media supplemented with 2 mM L-Glutamine, 10% heat inactivated FBS, 100 U/ml penicillin, 100 μg/ml streptomycin. Cells on growth medium were plated on 96-well plate at 11,000 cells/well and placed in the incubator. After 2 days, media were replaced with differentiation medium (growth medium containing 1% FBS) and 10 μM retinoic acid. Differentiation medium was replaced every other day and cells were used after 7 days of differentiation. U373 were plated on 12 transwell plates (0.4 μm polyester membrane, Costar) at a density of 50,000 cells/well for 72 hrs. Cells were co-cultured together for 24 hrs before treatment in differentiation medium (growth medium containing 1% FBS without retinoic acid).
Thereafter cells were treated with 25 μg/ml α-synuclein (Wt, A53T, E46K) in the presence or absence of 10% bacteria supernatant for 48 hrs. Cell free Supernatants were collected, spun-down at 10000 g for 3 min at 4° C., aliquoted and stored at −80° C. Human IL-6 and IL-8 were measured as described above.

NFκB promoter = NFκB promoter activation in Hek blue TLR4 cells (Quanti Blue); assay type: cell-based, human; conditions: 10% bacteria supernatant, 22 h
Procedure: Once grown the Human Hek blue cells were plated in 96 well plates at 25,000 cells/well in 4 replicates. One set of cells were treated with α-synuclein A53T (1 ug/mL) alone or with 10% of bacteria supernatant from MRX0029 for 22 h. The second set of cells were treated with LPS (10 ng/mL, from Salmonella enterica serotype Typhimurium, Sigma Aldrich, cat n. L6143) alone or with 10% of bacteria supernatant from MR029 for 22 h. The cells were subsequently spun down and 20 ul of the supernatant was mixed with 200 ul of Quanti Blue reagent (InvivoGen, cat n. rep-qb2), incubated for 2 h and absorbance read at 655 nm.

MPTP lesioned mice = assay: Dopamine, DOPAC and HVA in striatum of MPTP lesioned mice (HPLC); assay type: in vivo, mouse; conditions: 2 x 10^8 bacteria p.o. 18 days, MPTP 4 × 20 mg/kg i.p. day 0, day 4 sampling
Procedure: The aim of this study was to evaluate the effects of MRX0029 anaerobic bacteria using MPTP lesioned mice. 48 male mice were allocated to 4 different treatment groups (groups A, B, E and I, with n=12 animals in each group). The treatment groups are shown in Table 1 below and the project time course is outlined below.
Groups A, B, E and I were treated daily for 18 days via oral gavage with either bacteria (MRx0029-group E), or vehicle (PBS). Oral treatment started 14 days before MPTP lesion. Group I animals received a daily vehicle (PBS) p.o. (per oral) treatment and were injected i.p. (intraperitoneal) with the reference drug 30 min before and 90 min after first MPTP on day 0. The application volume for p.o. and vehicle treatment was 200 μl per mouse. Bacteria strain of group E was from glycerol stocks (gly). For oral treatment, gavages for applications were stored in vial containing 70% Ethanol and were flushed before and after each use with distilled water. Every treatment group had its own gavage and ethanol vial and distilled water vial. The tubes and gavages were not changed between the groups. […]
Concentrations of DA, DOPAC and HVA in the striatal samples were determined by column liquid chromatography with electrochemical detection [110; 111]. […] The chromatograms were recorded and integrated by use of a computerized data acquisition system (DataApex, Prague, Czech Republic). […]

Substance: Megasphaera massiliensis [MRx0029]
- α-syn-induced secretion of IL-6 [1]: greatest
- activation of the NFκB promoter by LPS (NFκB promoter; LPS 10 ng/mL): inhibited
- activation of the NFκB promoter by α-synuclein (NFκB promoter; α-synuclein A53T 1 ug/mL): not inhibited
- DOPAC in striatum (MPTP lesioned mice): recover production
- Dopamine in striatum (MPTP lesioned mice): recover production
